This is an account of results in patent US20260234150A1, “COMPOUND FOR INHIBITING NLRP3, PREPARATION METHOD, AND USE” (DOVETREE MEDICINES UNUS, INC., priority 2023, published 2026).

Structures are written as SMILES. Read-outs that look alike come from different tables or passages of the source.

The test system of data set [1] is IL-1β secretion of THP-1 cells. Nature of the data set: Effect of NLRP3 inhibitor on IL-1β secretion of THP-1 cells (AlphaLISA). Type of data set: cell-based. Conditions: Homo sapiens; PMA, LPS and Nigericin stimulated THP-1 cells, IL-1β in supernatant; read-out: IC50 (nM), THP-1 cells to detect NLRP3 inhibitors. On the technique in general: In Alpha technology, singlet oxygen from a donor bead excites a nearby acceptor bead.

Data set [2] is described as follows: Liver microsome metabolic stability, human. It counts as in vitro ADME. The conditions noted are these: human liver microsomes, 45 min incubation. As to the method:
Purpose: This experiment investigates the metabolic stability of the compound in liver microsomes of different species such as humans, mice and rats, and the residual content of the test compound after incubation with liver microsomes of different species such as humans, mice and rats.
Preparation of 500 μM solution of target compound and positive control: 5 μL of each 10 mM stock solution was taken, added to 95 μL acetonitrile, and mixed for 30 s;
Preparation of 6 mM NADPH solution: 100 mM Stock aliquot liquid was diluted with Mg-Mg —K-Buffer.
2.1.1 Liver microsome solution: 18.75 μL of 20 mg/mL HLM, RLM, MLM, DLM, MOLM (final concentration: 0.5 mg/ml) were taken and placed them in each well of a 96-well plate;
2.1.2 1.5 μL of 500 μM solution of each compound was added respectively;
2.1.3 479.8 μL of phosphate buffer was taken, then added to each compound well, and mixed at 1000 rpm in an oscillating mixer for 10 s.
30 μL of the above samples were taken and aliquoted to a new 96-well plates respectively (including NADPH group, n=2, and no NADPH group at 0 and 45 min, n=1), marked as 0, 5, 15, 30 and 45 min; […]
The slope was calculated based on the LN value of the compound concentration percentage and time as the coordinate axis, and the residual content of the compound after incubation with liver microsomes was calculated based on the slope and formula. […]
In general terms: Microsomes from liver hold many membrane-bound enzymes, among them those of drug oxidation.

The target of another data set is T1, CYP3A4 (Homo sapiens, UniProt P08684).
T1 construct: 0.05 mg/mL liver microsome (BioIVT, IHG) phosphate buffer solution; tissue BioIVT IHG; host or cells: human liver microsomes
The experiment in a line: CYP450 enzyme inhibition in human liver microsomes, CYP3A4. Type of data set: in vitro ADME. How it is done: This experiment incubates the compound, liver microsomes and different CYP subtype enzyme substrates in a 37° C. water bath to measure the amount of substrate metabolites produced and evaluate the inhibitory effect of the compound of the present disclosure on CYP enzymes based on the IC50 value.
i. The compound was diluted to 0, 0.02 mM, 0.06 mM, 0.2 mM, 0.6 mM, 2 mM and 6 mM concentrations with DMSO (Aladdin, catalog number: D103273-500 ml).
ii. The enzyme substrate solutions of each CYP subtype were prepared by phosphate buffer (sigma: V900050-500G).
iii. Sample incubation. […] After centrifugation at 4000 rpm and 4° C. for 40 min, the supernatant was diluted with pure water according to the response of the substrate metabolites and then detected by UPLC-MS/MS (Sciex, Q-Trap 4500). […]
The inhibitory effect of the compound on each P450 enzyme in human liver microsomes was calculated as the percentage of reduced metabolite formation compared with the non-inhibitory control (i.e., blank DMSO). The IC50 value for each P450 enzyme in human liver microsomes was calculated using the logarithm of the remaining activity and the inhibitor concentration using Graphpad Prism software. […]

T1 sequence (P08684 whole entry): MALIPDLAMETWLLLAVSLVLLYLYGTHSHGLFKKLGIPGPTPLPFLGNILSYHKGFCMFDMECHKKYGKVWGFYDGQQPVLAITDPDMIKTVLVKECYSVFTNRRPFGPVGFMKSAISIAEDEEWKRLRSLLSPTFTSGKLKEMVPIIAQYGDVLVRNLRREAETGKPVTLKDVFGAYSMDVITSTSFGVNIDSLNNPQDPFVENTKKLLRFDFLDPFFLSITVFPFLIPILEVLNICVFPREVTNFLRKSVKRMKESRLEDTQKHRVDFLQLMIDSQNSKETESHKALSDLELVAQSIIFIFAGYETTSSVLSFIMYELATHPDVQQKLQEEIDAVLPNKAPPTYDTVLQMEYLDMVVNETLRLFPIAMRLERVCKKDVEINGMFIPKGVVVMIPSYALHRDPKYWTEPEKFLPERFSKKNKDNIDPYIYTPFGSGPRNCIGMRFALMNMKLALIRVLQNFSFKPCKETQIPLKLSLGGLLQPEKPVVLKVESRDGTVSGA

On to `CC(=O)N1CCOC[C@H]1CNc1nc2nc(-c3c(C)cc(C(F)(F)F)cc3O)ccc2o1` [Compound 111], for which the half-inhibitory concentration (IC50) (commonly the concentration that gives 50% inhibition) in data set [1] was less than 50 nM; on CYP3A4 (substrate Midazolam, read-out: Inhibitory activity IC50 (μM) CYP3A4-M), 28.7 µM; at CYP3A4 (substrate Testosterone, read-out: Inhibitory activity IC50 (μM) CYP3A4-T) it was greater than 30 µM. Also, the “LMS (h)(% rem, 45 min)” value in data set [2] came out at 93.24 % rem.
